According to ChEMBL document CHEMBL1127057, “Synthesis, optical resolution, absolute configuration, and preliminary pharmacology of (+)- and (-)-cis-2,3,3a,4,5,9b-hexahydro-1-methyl-1H- pyrrolo-[3,2-h]isoquinoline, a structural analog of nicotine” (J Med Chem, 1993):

How the values were obtained:
Mus musculus [1] = species on record: Mus musculus; assay: Inhibition of spontaneous activity in mice; format: functional
Mus musculus [2] = species on record: Mus musculus; assay: Inhibition of tail-flick response (antinociception) in mice; format: functional
Mus musculus [3] = species on record: Mus musculus; assay: Equilibrium dissociation constant (Kd) was determined
[4] = Binding affinity was evaluated towards nicotine receptor in mouse brain; format: tissue-based

CN1CCC[C@H]1c1cccnc1 [NICOTINE]
ED50 (Mus musculus [1]): 4.44 µmol/kg | ED50 (Mus musculus [2]): 4.81 µmol/kg | Kd (Mus musculus [3]): 1.41 nM

CN1CCC2CCc3ccncc3C21 (single isomer, unassigned; (+))
ED50 (Mus musculus [1]): 7.13 µmol/kg | ED50 (Mus musculus [2]): 7.45 µmol/kg

CN1CCC2CCc3ccncc3C21 (single isomer, unassigned; (-))
ED50 (Mus musculus [1]): 61.7 µmol/kg | Ki [4]: 605 nM

c1cc2c(cn1)C1NCCC1CC2 (racemic)
ED50 (Mus musculus [1]): 24.8 µmol/kg | Ki [4]: 167 nM | ED50 (Mus musculus [2]): 25.7 µmol/kg
